Patent publication US20040226502A1, “Crystal structure of 2c-methyl-d-erythritol 2,4-cyclodiphosphate synthase” (priority 2001, published 2004)

Legend:
[1] = biological target: T1, 2C-methyl-D-erythritol 2,4-cyclodiphosphate synthase (Escherichia coli, UniProt P62617); experiment: Crystal soaking and 3D structure determination of ligand complexes; format: binding, E. coli; settings: for affinity for the protein (in words): from crystals/structures subs, sub2 and cyt
T1 construct: His6 (from vector pQE30) (N); made in house; host or cells: E. coli XL1-Blue carrying pQEispF
Protocol: The following substrate, substrate analoge and product complexes were determined in order to determine binding of these molecules to the synthase:
subop: a crystal soaked with 10 mM 4-diphosphocytidyl-2C-methyl-D-erythritol. The zinc atom the water or hydroxyl-group at the zinc is replaced by an oxygen of the beta-phosphate of the diphosphocytidyl-moiety.
subs: a crystal soaked with 10 mM 4-diphosphocytidyl-2C-methyl-D-erythritol 2-phosphate and 10 mM EDTA, that contains no zinc.
sub2: a crystal soaked with 10 mM 4-diphosphocytidyl-2C-methyl-D-erythritol 2-phosphate, that containes zinc and the products CMP and 2C-methyl-D-erythritol 2,4-cyclodiphosphate.
mgcdp2: a crystal soaked with 2 mM CDP and 5 mM MgCl2
cyt: a crystal soaked with 10 mM cytidine
These structures were determined using the nat2 structure as starting model. Initially a rigid body refinement was carried out followed by positional refinement. Then the substrate, substrate analoge or product molecules were build into the electron density of difference electron density maps, again followed by refinement of atom positions and B-factors.
Crystals containing the synthase and zinc were incubated for one hour with about 5 mM of a ligand in mother liquor containing 2M ammonium formate, 0.1M HEPES/NaOH at pH 7.0 and 20% D-(−)-2,3-butanediole (purchased from FLUKA) as a cryo-protectant. Crystals were mounted in a nylon-loop and flash frozen in a stream of nitrogen at 100Kelvin with an Oxford cryo stream. […] Diffraction data were measured at that temperature without any indication of radiation damage.
In order to obtain a crystal structure of 2C-methyl-D-erythritol 2,4-cyclodiphosphate synthase in complex with CDP, the synthase was crystallized according to example 8. A crystal of suitable size was then soaked in crystallization buffer (see example 8) further containing 5 mM CDP and 5 mM MgCl2.
The starting model for the determination of the structure of the complex was the structure of the synthase without a substrate analoge. […]

[2] = biological target: T1, 2C-methyl-D-erythritol 2,4-cyclodiphosphate synthase; format: biochemical; settings: E. coli enzyme, compound as substrate
Protocol: Assay mixtures contain 50 mM potassium phosphate, pH 7.0, 2 mM DTT, 2 mM MgCl2, 1 mM 4-diphosphocytidyl-2C-methyl-D-erythritol 2-phosphate and protein in a total volume of 100 μl. The mixtures are incubated at 37° C. for 20 min. The reactions are terminated by adding EDTA at a final concentration of 4 mM. The samples are centrifuged and the supernatant is analyzed by HPLC using a column of Multospher 120 RP 18-AQ-5 (4.6×250 mm, CS-Chromatographic Service Gmbh) that has been equilibrated and run with Gradient No. 3 at a flow rate 1 ml min^−1 (see below). The effluent is monitored photometrically (270 nm).
One unit of 2C-methyl-D-erythritol 2,4-cyclodiphosphate synthase activity is defined as the amount of protein which produced 1 μmol min^−1 of CMP.
Column: Multospher 120 RP 18-5 AQ, 250×4.6 mm, particle size 5 μm (CS: Chromatographic Service GmbH, Langerwehe, Germany)

T1 sequence (P62617 whole entry): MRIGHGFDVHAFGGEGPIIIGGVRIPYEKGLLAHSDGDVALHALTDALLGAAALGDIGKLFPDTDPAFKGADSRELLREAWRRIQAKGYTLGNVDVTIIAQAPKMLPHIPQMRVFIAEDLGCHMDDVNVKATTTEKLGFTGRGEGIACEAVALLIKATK

SMILES: Nc1ccn([C@@H]2O[C@H](CO)[C@@H](O)[C@H]2O)c(=O)n1 [cytidine]
- affinity for the protein (in words) [1]: considerable affinity

SMILES: C[C@@](CO)(OP(=O)(O)O)[C@H](O)COP(=O)(O)OP(=O)(O)OC[C@H]1O[C@@H](n2ccc(N)nc2=O)[C@H](O)[C@@H]1O [4-diphosphocytidyl-2C-methyl-D-erythritol 2-phosphate]
- Km [2]: 37 µM
- vmax [2]: 76 µmol/mg/min

SMILES: Nc1ccn([C@@H]2O[C@H](COP(=O)(O)OP(=O)(O)O)[C@@H](O)[C@H]2O)c(=O)n1 [CDP, cytidine diphosphate]
- type of inhibition of the synthase (in words) ([1]; inferred from binding to a portion of the active site in the synthase-CDP complex): competitive inhibitor

SMILES: Nc1ccn([C@@H]2O[C@H](COP(=O)(O)O)[C@@H](O)[C@H]2O)c(=O)n1 [CMP, cytidine monophosphate]
- affinity for the protein (in words) [1]: considerable affinity
